Results on 58 compounds are retold here after BindingDB's records for doi:10.7270/Q2TX3CTT (Broad Institute, 2010).

Where a name gives a salt, the structure may show the parent alone.

The target of this experiment is Glycogen synthase kinase-3 beta (Homo sapiens, UniProt P49841). As to the kind of experiment: concentration-response blocking of human GSK3B – biochemical, luminescence, cell-free homogeneous, retest, dose response (AID 434954).
Glycogen synthase kinase-3 beta, sequence (P49841 whole entry): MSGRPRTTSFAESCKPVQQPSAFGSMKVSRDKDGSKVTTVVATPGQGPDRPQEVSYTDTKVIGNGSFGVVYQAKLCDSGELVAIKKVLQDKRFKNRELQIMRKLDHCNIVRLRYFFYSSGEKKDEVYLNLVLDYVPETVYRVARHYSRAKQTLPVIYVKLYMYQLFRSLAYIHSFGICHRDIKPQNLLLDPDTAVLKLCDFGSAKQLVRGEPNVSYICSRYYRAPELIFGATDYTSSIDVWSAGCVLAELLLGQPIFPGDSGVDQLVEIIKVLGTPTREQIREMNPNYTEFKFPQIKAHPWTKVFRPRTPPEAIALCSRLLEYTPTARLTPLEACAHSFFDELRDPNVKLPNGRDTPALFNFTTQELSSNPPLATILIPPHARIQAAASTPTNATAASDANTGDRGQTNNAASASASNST
The EC50 is the concentration that produces a half-maximal response. `O=C(Nc1ncnc2sc3c(c12)CCCC3)c1ccncc1` [N-(5,6,7,8-tetrahydro-[1]benzothiolo[2,3-d]pyrimidin-4-yl)-4-pyridinecarboxamide] gave an EC50 of 42.4 µM.

`Nc1nc(Nc2ccccc2)nc(NCc2ccccc2)c1[N+](=O)[O-]`: the midpoint of the response, the EC50, lay at 13.3 µM.

For the compound `Cc1ccc(N2CSC3=C(C#N)C(c4cccs4)CC(=O)N3C2)cc1` (stereo not drawn) [MLS000522486], the EC50 was > 300 µM.

`Nc1nc(NCC2CCCO2)nc(Nc2ccc(F)cc2)c1[N+](=O)[O-]` (stereo not drawn) [SMR000219528] displayed a half-maximal effective concentration (EC50) of 5.82 µM.

As to `Cc1ccc(Nc2nc(NCC3CCCO3)nc(N)c2[N+](=O)[O-])cc1C` (stereo not drawn) [SMR000219669], it took 10.7 µM to reach a half-maximal effect (EC50).

As for `Cc1cc(NC(=O)/C=C/c2cccc(F)c2)n(-c2nc3ccccc3[nH]2)n1` [(E)-N-[2-(1H-benzimidazol-2-yl)-5-methylpyrazol-3-yl]-3-(3-fluorophenyl)prop-2-enamide], the concentration giving a half-maximal response (EC50) was > 300 µM.

`Nc1nc(NCC2CCCO2)nc(Nc2ccccc2)c1[N+](=O)[O-]` (stereo not drawn) [5-nitro-2-N-(oxolan-2-ylmethyl)-4-N-phenylpyrimidine-2,4,6-triamine] gave an EC50 of 2.17 µM.

As for `Cc1c(C(=O)NN=Cc2ccccn2)nnn1-c1nonc1N` [1-(4-amino-1,2,5-oxadiazol-3-yl)-5-methyl-N-(pyridin-2-ylmethylideneamino)triazole-4-carboxamide], the EC50 was > 300 µM.

Turning to `CCOc1ccc(/C=C2\CCCc3c2nc2ccccc2c3C(=O)O)cc1OC` [SMR000688807], the EC50 was > 300 µM.

In the case of `O=S(=O)(Nc1cccnc1)c1ccc(C2CCCCC2)cc1` [MLS000075296], the EC50 was > 300 µM.

Consider `COc1ccc(OC)c(C(=O)c2coc3ccc(OC)cc23)c1` [MLS000108671], for which the EC50 is > 300 µM.

Take `COc1ccccc1Nc1nc(NCc2ccco2)nc(N)c1[N+](=O)[O-]` [SMR000436038]: the EC50 is > 300 µM.

For `O=C(CSc1ccc2nnc(-c3ccc(F)cc3)n2n1)NCc1ccco1` [2-[[3-(4-fluorophenyl)-[1,2,4]triazolo[4,3-b]pyridazin-6-yl]thio]-N-(2-furanylmethyl)acetamide], the EC50 was 39.9 µM.

Turning to `COc1cccc2cc(C(=O)CS(=O)(=O)c3ccc(C(C)(C)C)cc3)c(=O)oc12` [3-[2-(4-tert-butylphenyl)sulfonyl-1-oxoethyl]-8-methoxy-1-benzopyran-2-one], the EC50 is > 300 µM.

For `NC(=O)c1c(NC(=O)CN2C(=O)CCC2=O)sc2c1CCCCC2` [SMR000018552], the concentration for a half-maximal effect (EC50) is > 300 µM.

Consider `CCN(CC)Cc1c(O)ccc2occ(C(=O)c3ccc(OC)cc3)c12` [[4-(diethylaminomethyl)-5-oxidanyl-1-benzofuran-3-yl]-(4-methoxyphenyl)methanone], for which the EC50 was > 300 µM.

As to `CSc1nc2c(c(=O)[nH]1)C(c1cccs1)C1C(=O)CCCC1=N2` (stereo not drawn), the EC50 is > 300 µM.

`Cc1cccc(Nc2nc(NCC3CCCO3)nc(N)c2[N+](=O)[O-])c1` (stereo not drawn) [5-Nitro-N-(tetrahydro-furan-2-ylmethyl)-N'-m-tolyl-pyrimidine-2,4,6-triamine] showed an EC50 of 4.11 µM.

With `COc1ccc(CCNC(=O)C(C(=O)c2ccccc2)n2cc(Cl)ccc2=O)cc1OC` (stereo not drawn) [2-(5-chloro-2-oxopyridin-1-yl)-N-[2-(3,4-dimethoxyphenyl)ethyl]-3-oxo-3-phenylpropanamide], the EC50 was > 300 µM.

Consider `CCN1CCN(c2cc(C)c3cc(NC(=O)c4cc(OC)cc(OC)c4)ccc3n2)CC1` [N-[2-(4-ethylpiperazin-1-yl)-4-methylquinolin-6-yl]-3,5-dimethoxybenzamide], for which the 50% effective concentration (EC50) was > 300 µM.

For the compound `COC(=O)c1ccc(-n2c(O)cc(N3CCN(C(=O)c4ccco4)CC3)c2O)cc1` [MLS000027707], the EC50 is > 300 µM.

Take `COc1cccc(NC(=O)NNS(=O)(=O)c2ccc(OC)cc2OC)c1` [SMR000679286]: the EC50 was > 300 µM.

With `CC1(C)N=C(N)N=C(N)N1c1ccc(Oc2ccc(Cl)cc2)c(Cl)c1` [1-[3-chloro-4-(4-chlorophenoxy)phenyl]-6,6-dimethyl-1,3,5-triazine-2,4-diamine;hydrochloride], the EC50 is > 300 µM.

Turning to `CC(C)(C)c1ccc(OCC(=O)NCCN2CCCC2)cc1` [2-(4-tert-butylphenoxy)-N-(2-pyrrolidin-1-ylethyl)ethanamide;hydrochloride], the EC50 is > 300 µM.

Turning to `Cc1ccc(OCC(=O)N/N=C/c2ccc(O)c([N+](=O)[O-])c2)c([N+](=O)[O-])c1` [SMR000312577], the EC50 was > 300 µM.

As for `O=C1Nc2cc(C(=O)NCCCN3CCOCC3)ccc2S/C1=C/c1cccc(Cl)c1` [(2E)-2-[(3-chlorophenyl)methylidene]-N-(3-morpholin-4-ylpropyl)-3-oxidanylidene-4H-1,4-benzothiazine-6-carboxamide], the half-maximal effective concentration (EC50) stood at 15.1 µM.

For `COc1ccc(OC)c(Nc2c3ccccc3nc3ccccc23)c1` [N-(2,5-dimethoxyphenyl)-9-acridinamine], the EC50 was > 300 µM.

In turn, `C=CCNC(=S)NN=Cc1cn(-c2ccccc2)nc1-c1ccc(OC)cc1` [SMR000212115] registered an EC50 of 42.5 µM.

Take `CCN1CCN(C(=O)Cn2nc(C)n3c(cc4c(OC)cccc43)c2=O)CC1` [MLS001076371]: the EC50 is > 300 µM.

`COC(=O)c1cc(C(=O)Nc2cc(C)ccn2)cc([N+](=O)[O-])c1` [methyl 3-{[(4-methyl-2-pyridinyl)amino]carbonyl}-5-nitrobenzoate]: the EC50 was > 300 µM.

As for `CC(C)N(C(=O)Cc1ccccc1[N+](=O)[O-])C(C)C` [SMR000291889], the EC50 is > 300 µM.

Turning to `Fc1ccc(CSc2nnc(-c3cccnc3)o2)cc1` [2-[(4-fluorophenyl)methylthio]-5-(3-pyridinyl)-1,3,4-oxadiazole], the EC50 was > 300 µM.

As to `Cc1ccc(N2CC(C(=O)NCCCn3ccnc3)CC2=O)cc1` (stereo not drawn) [MLS000069041], the EC50 is > 300 µM.

With `Cc1cc2c(Nc3ccc(O)cc3)ncnc2s1` [4-(6-Methyl-thieno[2,3-d]pyrimidin-4-ylamino)-phenol], the 50% effective concentration (EC50) is > 300 µM.

`CCOc1ccc(-c2csc3[n+]2CC[N-]3)cc1[N+](=O)[O-]`: the half-maximal effective concentration (EC50) is > 300 µM.

As to `CCc1cccc(C)c1NC(=O)CSc1nnc(CCCOc2ccc(Cl)cc2Cl)n1C` [2-({5-[3-(2,4-dichlorophenoxy)propyl]-4-methyl-4H-1,2,4-triazol-3-yl}thio)-N-(2-ethyl-6-methylphenyl)acetamide], the EC50 was > 300 µM.

Take `Cc1ccccc1NC(=O)CSc1nnc2ccc(-c3ccncc3)nn12` [SMR000808359]: the EC50 was > 300 µM.

In the case of `COc1ccccc1Nc1nc(NCCCN(C)C)nc(N)c1[N+](=O)[O-]` [N2-[3-(dimethylamino)propyl]-N4-(2-methoxyphenyl)-5-nitro-pyrimidine-2,4,6-triamine], the EC50 was 2.13 µM.

On to `O=C(O)c1cccnc1-c1ncccc1C(=O)O`, for which the EC50 is > 300 µM.

`C=CCNC(=O)c1onc(CSc2cccc(OC)c2)c1C(=O)NCC=C` [3-[(3-methoxyphenyl)sulfanylmethyl]-N4,N5-bis(prop-2-enyl)-1,2-oxazole-4,5-dicarboxamide]: the EC50 is > 300 µM.

Regarding `COC(=O)c1ccc(Nc2nc(-c3ccncc3)nc3ccccc23)cc1` [4-[(2-pyridin-4-yl-4-quinazolinyl)amino]benzoic acid methyl ester], the EC50 is > 300 µM.

In the case of `Cc1cc(NC(=O)CSc2ccc3nnc(-c4cccs4)n3n2)no1`, the EC50 was > 300 µM.

As to `CCc1cc(=O)oc2cc(OC(C)=O)cc(OC(C)=O)c12` [(5-acetyloxy-4-ethyl-2-oxidanylidene-chromen-7-yl) ethanoate], the EC50 is 28.5 µM.

Compound `Clc1ccc(CSc2nnc(-c3ccncc3)o2)cc1` [2-[(4-chlorobenzyl)thio]-5-(4-pyridyl)-1,3,4-oxadiazole] displayed a 50% effective concentration (EC50) of 25.9 µM.

On to `CCCCn1nc(NC(=O)CC)c2cc3cc(OC)ccc3nc21` [N-(1-butyl-6-methoxy-pyrazolo[3,4-b]quinolin-3-yl)propanamide], for which the EC50 worked out at 43.6 µM.

Consider `Cc1ccc2nc3c(cc2c1)c(NC(=O)c1ccccn1)nn3CC(C)C`, for which the EC50 was > 300 µM.

With `CC1(C)CC(=O)C2C(=Nc3ccccc3NC2c2ccc(F)cc2)C1` (stereo not drawn) [SMR000515995], the EC50 is > 300 µM.

`O=c1cc(-c2ccccc2Cl)oc2c([N+](=O)[O-])c(O)cc(O)c12` [MLS000518336] yielded an EC50 of 2.58 µM.

`CN(C)CCCNc1nc(N)c([N+](=O)[O-])c(NCCO)n1` [2-[[6-amino-2-[3-(dimethylamino)propylamino]-5-nitro-4-pyrimidinyl]amino]ethanol] gave an EC50 of 60.3 µM.

In turn, `Nc1nc(Nc2ccccc2)sc1C(=O)c1ccccc1` [(4-azanyl-2-phenylazanyl-1,3-thiazol-5-yl)-phenyl-methanone] gave an EC50 of 0.171 µM.

`NS(=O)(=O)c1ccc(NC(=O)CN2C(=O)CCC2=O)cc1` [2-[2,5-bis(oxidanylidene)pyrrolidin-1-yl]-N-(4-sulfamoylphenyl)ethanamide]: the EC50 was > 300 µM.

As for `COc1ccc2c(c1)=C(NN1C(=O)c3ccccc3C1=O)C(=O)N=2` [2-[(5-methoxy-2-oxidanylidene-indol-3-yl)amino]isoindole-1,3-dione], the EC50 is > 300 µM.

With `COc1cccc(C2C3=C(CC(C)(C)CC3=O)N=C(C)C2C#N)c1` (stereo not drawn) [4-(3-methoxyphenyl)-2,7,7-trimethyl-5-oxo-1,4,5,6,7,8-hexahydro-3-quinolinecarbonitrile], the 50% effective concentration (EC50) is > 300 µM.

Take `CCOC(=O)c1c(C)[nH]c(C)c1C(=O)COC(=O)CNC(=O)c1ccc(OCC)cc1` [4-[2-[2-[[(4-ethoxyphenyl)-oxomethyl]amino]-1-oxoethoxy]-1-oxoethyl]-2,5-dimethyl-1H-pyrrole-3-carboxylic acid ethyl ester]: the EC50 was > 300 µM.

Turning to `CC1CCc2c(sc3nn[nH]c(=O)c23)C1` (stereo not drawn) [SMR000124179], a half-maximal effect (EC50) was put at 39 µM.

For the compound `CCCSCCCNC(=O)Cn1nc(CC)n2c(cc3c(OC)cccc32)c1=O`, the EC50 is > 300 µM.

As to `Cc1nc(Nc2ccc(S(N)(=O)=O)cc2)sc1C(=O)Nc1ccccc1` [4-methyl-N-phenyl-2-(4-sulfamoylanilino)-5-thiazolecarboxamide], the EC50 is > 300 µM.

As for `O=C(O)c1ccccc1Nc1ccnc(C(F)(F)F)c1` [2-[[2-(trifluoromethyl)-4-pyridinyl]amino]benzoic acid], the EC50 is > 300 µM.
